One test deals with T1, MEK1 (Homo sapiens, UniProt Q02750).
T1 construct: purchased Millipore 14-420
Briefly: MEK1 Activation Kinase Assay (Cot1, HTRF). It counts as biochemical. The conditions noted are these: activation of GST-MEK1 by Cot1. The protocol: The kinase Cot1 activates MEK1 by phosphorylating its activation loop. The inhibitory activity of compounds of the present invention on this activation of MEK1 was quantified employing the HTRF assay described in the following paragraphs.
As substrate for the kinase reaction the unactive C-terminally His6-tagged GST-MEK1 fusion protein (Millipore cat. no 14-420) was used.
630 (Sigma), 5 mM β-phospho-glycerol] were added and the mixture was incubated for 10 min at 22° C. to allow pre-binding of the test compounds to the GST-MEK1 before the start of the kinase reaction. Then the kinase reaction was started by the addition of 2 μl of a solution of Cot1 in assay buffer and the resulting mixture was incubated for a reaction time of 20 min at 22° C. The concentration of Cot1 in the assay was adjusted depending of the activity of the enzyme lot and was chosen appropriate to have the assay in the linear range, typical enzyme concentrations were in the range of about 2 ng/μl (final conc. in the 5 μl assay volume). […] The resulting mixture was incubated 2 h at 22° C. to allow the binding of the phosphorylated GST-MEK1 to the anti-GST-XL665 and the Eu-cryptate labelled anti-phospho-MEK 1/2 antibody. Subsequently the amount of Ser217/Ser221-phosphorylated substrate was evaluated by measurement of the resonance energy transfer from the Eu-Cryptate-labelled anti-phospho-MEK antibody to the anti-GST-XL665.
In general terms: TR-FRET usually uses a lanthanide donor and a delayed reading to cut background.

In another test the test system is colon cancer. To be noted: oral treatment, mouse models, literature [18]; cited from earlier work.
The conditions of test [1]: phase I/II clinical trials in humans, literature [19]; cited from earlier work.

A value given as a limit tells only on which side of the number the result lay.

T1 sequence (Q02750 whole entry): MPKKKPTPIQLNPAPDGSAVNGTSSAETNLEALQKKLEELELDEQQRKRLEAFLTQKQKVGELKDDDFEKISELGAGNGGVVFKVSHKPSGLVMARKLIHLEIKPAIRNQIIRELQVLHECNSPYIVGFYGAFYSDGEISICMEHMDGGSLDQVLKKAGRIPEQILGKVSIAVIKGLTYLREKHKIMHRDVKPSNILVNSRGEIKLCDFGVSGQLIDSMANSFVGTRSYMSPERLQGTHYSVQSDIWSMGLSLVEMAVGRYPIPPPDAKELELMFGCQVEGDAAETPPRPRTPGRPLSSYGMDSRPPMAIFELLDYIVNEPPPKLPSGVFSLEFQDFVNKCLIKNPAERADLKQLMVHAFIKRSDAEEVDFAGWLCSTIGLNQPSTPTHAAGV

As usually defined, the IC50 is the concentration needed to halve the response being measured. Lower therefore signals higher potency. With `CN(C)S(=O)(=O)Nc1cccc(Oc2cc(F)cc(Nc3ccc(I)cc3F)c2C#N)c1` [Example 2.1, N′-[3-[2-cyano-5-fluoro-3-[(2-fluoro-4-iodophenyl)amino]phenoxy]phenyl]-N,N-dimethyl-sulfamide], at MEK1, the IC50 is less than 1000 nM. `CN(C)S(=O)(=O)Nc1cccc(Oc2cc(F)cc(Nc3ccc(I)cc3F)c2C(N)=O)c1` [Example 3.2, 2-[3-[[(dimethylamino)sulfonyl]amino]phenoxy]-4-fluoro-6-[(2-fluoro-4-iodophenyl)amino]-benzamide] had a half-maximal inhibitory concentration (IC50) at MEK1 of less than 250 nM.

`NC(=O)c1c(Nc2ccc(I)cc2F)cc(F)cc1OCCCN1CCCC1=O` [Example 3.3, 4-Fluoro-2-(2-fluoro-4-iodo-phenylamino)-6-[3-(2-oxo-pyrrolidin-1-yl)-propoxy]-benzamide] gave an IC50 against MEK1 of less than 250 nM.

For the molecule `NC(=O)c1c(Nc2ccc(I)cc2F)cc(F)cc1OCCc1cccnc1` [Example 3.5, 4-Fluoro-2-(2-fluoro-4-iodo-phenylamino)-6-(2-pyridin-3-yl-ethoxy)-benzamide], the half-inhibitory concentration (IC50) on MEK1 was less than 250 nM.

Regarding `NC(=O)c1c(Nc2ccc(I)cc2F)cc(F)cc1OC[C@H](O)[C@@H](O)CO` [Example 3.8, 4-Fluoro-2-(2-fluoro-4-iodo-phenylamino)-6-((2S,3S)-2,3,4-trihydroxy-butoxy)-benzamide], at MEK1, the half-maximal inhibitory concentration (IC50) was less than 250 nM. `NC(=O)c1c(Nc2ccc(I)cc2F)cc(F)cc1Oc1cccc(N)c1` [Example 4.1, 2-(3-Amino-phenoxy)-4-fluoro-6-(2-fluoro-4-iodo-phenylamino)-benz-amide] returned an IC50 on MEK1 of less than 250 nM. `NC(=O)c1c(Nc2ccc(I)cc2F)cc(F)cc1OCCC1CCCCN1` (stereo not shown) [Example 4.5, 4-Fluoro-2-(2-fluoro-4-iodo-phenylamino)-6-(2-piperidin-2-yl-ethoxy)-benzamide] came in with an IC50 against MEK1 of less than 250 nM. As for `NC(=O)c1c(Nc2ccc(I)cc2F)cc(F)cc1OCC1CNC1` [Example 4.6, 2-(Azeitidn-3-ylmethoxy)-4-fluoro-6-(2-fluoro-4-iodo-phenylamino)-benzamide], the IC50 at MEK1 is less than 250 nM. Same read-out and setting: the value for `NC(=O)c1c(Nc2ccc(I)cc2F)cc(F)cc1Oc1ccc2c(c1)S(=O)(=O)CO2` [Example 5.1, 2-(3,3-Dioxo-2,3-dihydro-3λ^6-benzo[1,3]oxathiol-5-yloxy)-4-fluoro-6-(2-fluoro-4-iodo-phenylamino)-benzamide] was less than 1000 nM.

Consider `NC(=O)c1c(Nc2ccc(I)cc2F)cc(F)cc1Oc1ccccc1` [Example 5.2, 4-Fluoro-2-(2-fluoro-4-iodo-phenylamino)-6-phenoxy-benzamide], for which the half-inhibitory concentration (IC50) at MEK1 was less than 250 nM. In the case of `CS(=O)(=O)Nc1cccc(Oc2cc(F)cc(Nc3ccc(I)cc3F)c2C(N)=O)c1` [Example 6.1a, 4-Fluoro-2-(2-fluoro-4-iodo-phenylamino)-6-(3-methanesulfonylamino-phenoxy)-benzamide], the IC50 on MEK1 was less than 250 nM. The same measure, in the same setting: the value for `CCCNS(=O)(=O)Nc1cccc(Oc2cc(F)cc(Nc3ccc(I)cc3F)c2C(N)=O)c1` [Example 6.3, 2-[3-[[(propylamino)sulfonyl]amino]phenoxy]-4-fluoro-6-[(2-fluoro-4-iodophenyl)amino]-benzamide] was less than 250 nM. For `NC(=O)c1c(Nc2ccc(I)cc2F)cc(F)cc1Oc1cccc(N2CCCS2(=O)=O)c1` [Example 6.6, 2-[3-(1,1-Dioxo-1λ^6-isothiazolidin-2-yl)-phenoxy]-4-fluoro-6-(2-fluoro-4-iodo-phenylamino)-benzamide], on MEK1, the IC50 was less than 250 nM.

In turn, `NC(=O)c1c(Nc2ccc(I)cc2F)cc(F)cc1Oc1cccc(NS(N)(=O)=O)c1` [Example 6.7, 2-[3-[[(amino)sulfonyl]amino]phenoxy]-4-fluoro-6-[(2-fluoro-4-iodophenyl)amino]-benzamide] had an IC50 against MEK1 of less than 250 nM.

At MEK1, `NC(=O)c1c(Nc2ccc(I)cc2F)cc(F)cc1OCCCNS(=O)(=O)c1ccccc1` [Example 6.11, 2-(3-Benzene-sulfonylamino-propoxy)-4-fluoro-6-(2-fluoro-4-iodo-phenylamino)-benzamide] showed an IC50 of less than 250 nM. Regarding `CS(=O)(=O)N1CCCC(COc2cc(F)cc(Nc3ccc(I)cc3F)c2C(N)=O)C1` (stereo not shown) [Example 6.15, 4-Fluoro-2-(2-fluoro-4-iodo-phenylamino)-6-(1-methanesulfonyl-piperidin-3-ylmethoxy)-benzamide], the IC50 against MEK1 is less than 1000 nM. As for `Cn1cnc(S(=O)(=O)NCCCOc2cc(F)cc(Nc3ccc(I)cc3F)c2C(N)=O)c1` [Example 6.17, 4-Fluoro-2-(2-fluoro-4-iodo-phenylamino)-6-[3-(1-methyl-1H-imidazole-4-sulfonylamino)-propoxy]-benzamide], the IC50 on MEK1 was less than 250 nM. On the same count and under the same terms, then `CS(=O)(=O)N1CCCCC1CCOc1cc(F)cc(Nc2ccc(I)cc2F)c1C(N)=O` (stereo not shown) [Example 6.22, 4-Fluoro-2-(2-fluoro-4-iodo-phenylamino)-6-[2-(1-methanesulfonyl-piperidin-2-yl)-ethoxy]-benzamide], with less than 1000 nM. Take `CC(C)(O)C(O)CCOc1cc(F)cc(Nc2ccc(I)cc2F)c1C(N)=O` (stereo not shown) [Example 7.1, 2-(3,4-Dihydroxy-4-methyl-pentyloxy)-4-fluoro-6-(2-fluoro-4-iodo-phe-nylamino)-benzamide]: the IC50 at MEK1 was less than 250 nM. `NC(=O)c1c(Nc2ccc(I)cc2F)cc(F)cc1O[C@@H]1C[C@@H](O)[C@@H](O)C1` [Example 7.7]: the IC50 at MEK1 is less than 250 nM. Regarding `NC(=O)c1c(Nc2ccc(Br)cc2F)cc(F)cc1OCC[C@@H](O)CO` [Example 8.4, 2-(4-Bromo-2-fluoro-phenylamino)-6-((R)-3,4-dihydroxy-butoxy)-4-fluoro-benzamide], the IC50 against MEK1 was less than 1000 nM. `NC(=O)c1c(Nc2ccc(I)cc2)cc(F)cc1OCC[C@@H](O)CO` [Example 8.5, 2-((R)-3,4-Dihydroxy-butoxy)-4-fluoro-6-(4-iodo-phenylamino)-benzamide] registered an IC50 on MEK1 of less than 1000 nM.

`C#Cc1ccc(Nc2cc(F)cc(OCC[C@@H](O)CO)c2C(N)=O)c(F)c1` [Example 9.1, 2-((R)-3,4-Dihydroxy-butoxy)-6-(4-ethynyl-2-fluoro-phenylamino)-4-fluoro-benzamide] came in with an IC50 against MEK1 of less than 1000 nM. At MEK1, `C#Cc1ccc(Nc2cc(F)cc(Oc3cccc(NS(=O)(=O)N(C)C)c3)c2C(N)=O)c(F)c1` [Example 9.4, 2-[3-[[(dimethylamino)sulfonyl]amino]phenyoxy]-4-fluoro-6-[(4-ethynyl-2-fluorophenyl)amino]-benzamide] returned an IC50 of less than 250 nM. The same measure, in the same setting: then `C#Cc1ccc(Nc2cc(F)cc(Oc3cccc(NS(=O)(=O)NCCC)c3)c2C(N)=O)c(F)c1` [Example 9.5, 2-[3-[[(propylamino)sulfonyl]amino]phenyoxy]-4-fluoro-6-[(4-ethynyl-2-fluorophenyl)amino]-benzamide], with less than 250 nM; and `NC[C@H](O)CCOc1cc(F)cc(Nc2ccc(I)cc2F)c1C(N)=O` [Example 10.3, 2-((R)-4-Amino-3-hydroxy-butoxy)-4-fluoro-6-(2-fluoro-4-iodo-phenylamino)-benzamide], with less than 250 nM; and `NC(=O)c1c(Nc2ccc(I)cc2F)cc(F)cc1OCC[C@@H](O)CN1CCOCC1` [Example 10.6, 4-Fluoro-2-(2-fluoro-4-iodo-phenylamino)-6-((R)-3-hydroxy-4-morpholin-4-yl-butoxy)-benzamide], with less than 250 nM. Consider `NC(=O)c1c(Nc2ccc(I)cc2F)cc(Cl)cc1OCC[C@@H](O)CO` [Example 11.3, 4-Chloro-2-((R)-3,4-dihydroxy-butoxy)-6-(2-fluoro-4-iodo-phenylamino)-benzamide], for which, at MEK1, the IC50 is less than 1000 nM. At MEK1, `CNC(=O)c1c(Nc2ccc(I)cc2F)cc(F)cc1OCC[C@@H](O)CO` [Example 12.8, 2-((R)-3,4-Dihydroxy-butoxy)-4-fluoro-6-(2-fluoro-4-iodo-phenylamino)-N-methyl-benzamide] gave an IC50 of less than 250 nM.

Regarding `O=C(NOCC1CC1)c1ccc(F)c(F)c1Nc1ccc(I)cc1Cl` [PD184352], the “colon cancer growth in vivo” value with colon cancer is listed as “inhibit colon cancer growth”. Besides, the clinical efficacy entry in test [1] is recorded as “insufficient efficacy”.

These data come from patent US20090082328A1, “Substituted phenylamino-benzene derivatives useful for treating hyper-proliferative disorders and diseases associated with mitogen extracellular kinase activity” (Bayer Schering Pharma Aktiengesellschaft, priority 2007, published 2009).
